This is an account of results in patent US20090187484A1, “Soil treatments with carbon dioxide” (Cleareso, LLC, priority 2008, published 2009).

Series [1] has as its system Larvae of the root weevil, Diaprepes abbreviatus. Nature of the series: Immersion of root weevil larvae in test solutions (mortality, moribund effect). The format is in vivo. As to conditions: for Mortality of larvae with individual compounds and formulations: five larvae; for black residue across all treatments: control to 5.0%; for toxicity judgement for the larvae: 0.1 to 5.0%, test terminated at 24 hours. The source says:
Larvae and pupae of the root weevil, Diaprepes abbreviatus, were immersed in a variety of compounds to understand their effect on the activity of this pest.
The criterion for toxicity with these larvae is the lack of nipping behavior and its consequent black residue from blood loss and the lack of spontaneous movement.
Experimental Design. Larvae and pupae were received from the Florida Dept. of Agriculture's rearing program in Gainesville, Fla. Larvae were shipped as 50-day larvae (larvae that will pupate in about 10 days). Both larvae and pupae were held at 27° C. in 12 hour cycles of light and dark in their containers as separate individuals until experimentation began.
In the testing, five larvae or pupae were removed from their rearing cups and placed in a 150 ml glass beaker. In testing the Soy Technologies Manufacturer's Base (SMTB), a 5% solution was mixed in either water or carbonated water by adding 10 ml of SMTB to a 250 ml beaker and then adding water or carbonated water to the 200 ml mark. The solutions were then immediately added to the beaker with the larvae or pupae to cover them. Controls with water or carbonated water alone were also included. There was a single tray of five larvae for each treatment at each time period and a five larvae control for each time period. Larvae were removed and placed on plastic weighing trays after 5,10, 15, 20, 25, and 30 minutes. At the end of 30 minutes all organisms were assessed for mortality. Trays with larvae were left on the bench tip for 24 hours and then another mortality assessment was made.
Concentration Series. With the results from the time series above, larvae were held in different concentrations of STMB for 30 minutes. After 30 minutes, solutions were poured off and the trays wiped dry. Assessments were made at 24 or 48 hours with a few assessments at 72 hours dependent on effects. Treatments were: water or carbonated water as controls, and 0.1, 0.5, 1.0, 2.0, 3.0, 4.0 and 5.0% concentrations in either distilled water or carbonated water. Five larvae were used for each control and treatment. Pupae were not used in this assessment.

The nature of series [2]: Solubility and appearance of the aqueous test preparations. It is filed as physicochemical.

In the case of `COC(=O)CCCC(=O)OC` [1119-40-0, pentanedioic acid, dimethyl ester], the “survival of larvae after 30 minutes” value in series [1] (0.1 to 5.0% treatments, end of 30 minutes immersion) is “All larvae were alive”. The black residue result in series [1] (3 and 5% treatments, 48 hours) was “less black residue than the control”.

Regarding “Polyoxyethylene 10 tridecylether [24938-91-8]”, the black residue result in series [1] (3 and 5% treatments, 48 hours) is reported as “less black residue”. Moreover, the “Mortality of larvae with individual compounds and formulations” value in series [1] (concentration 0.1 percent, 24 hours) is reported as 0; in series [1] (concentration 0.1 percent, 48 hours), 0; in series [1] (concentration 0.1 percent, 72 hours), 0; in series [1] (concentration 1.0 percent, 24 hours), 2; in series [1] (concentration 1.0 percent, 48 hours), 2; in series [1] (concentration 1.0 percent, 72 hours), 2. Besides, the “Mortality of larvae with individual compounds and formulations” value amounted to 0 in series [1] (concentration 3.0 percent, 24 hours); 0 in series [1] (concentration 3.0 percent, 48 hours); 0 in series [1] (concentration 3.0 percent, 72 hours); 0 in series [1] (concentration 5.0 percent, 24 hours); 3 in series [1] (concentration 5.0 percent, 48 hours); 3 in series [1] (concentration 5.0 percent, 72 hours). Also, the “black residue across all treatments” value in series [1] (24 hours) is “gradation of black residue from control to 5.0 with 5.0 having the least”.

For `COC(=O)CCC(=O)OC` [106-65-0, butanedioic acid, dimethyl ester], the “toxicity judgement for the larvae” value in series [1] is listed as “non-toxic”. In addition, the “black residue across all treatments” value in series [1] (24 hours) is listed as “all treatments looked just like the control”. In addition, the “solubility of aqueous preparation” value in series [2] (0.1% concentration) is listed as “soluble”; in series [2] (1.0% concentration) it was “just soluble”; in series [2] (3.0% concentration), “not soluble”; in series [2] (5.0% concentration), “not soluble”.

On to `COC(=O)CCCCC(=O)OC` [627-93-0, Dimethyl hexanedioate], for which the “appearance (black residue) compared with control” value in series [1] (0.1% treatment, 24 hours) is reported as “looked identical”. Besides, the “toxicity judgement for the larvae” value in series [1] was “non-toxic”. In addition, the black residue entry in series [1] (5.0% treatment, 24 hours) was “only slightly less black residue than the 3.0% treatment”. The “solubility of aqueous preparation” value in series [2] (0.1% concentration) was “soluble”; in series [2] (1.0% concentration), “not completely soluble”; in series [2] (3.0% concentration), “not completely soluble”; in series [2] (5.0% concentration), “not completely soluble”.
